Test system: MC38_sgStk11 tumor
Assay: Anti-tumor efficacy in murine subcutaneous MC38_sgStk11 tumor model
Assay type: in vivo, Mus musculus
Conditions: for T/C / TGI %: day 11
Description: Summary: An in vivo anti-tumor efficacy of double combination treatment of Anti-PD1 and HDAC1,2-selective inhibitor in a murine subcutaneous MC38_sgStk11 tumor model in […] mice was performed.
96 mice plus 39 spare mice of the species: Mus musculus: strain: C57BL/6; age 8-10 weeks; sex: female; and body weight: 16.9-20.0 g
The MC38_sgStk11 tumor cells were maintained in vitro as a monolayer culture in DMEM+2 mM glutamine supplemented with about 10% heat inactivated fetal bovine serum, about 100 U/ml penicillin and 100 μg/ml streptomycin at about 37° C. in an atmosphere of about 5% CO2 in air. The tumor cells were routinely sub-cultured twice weekly by trypsin-EDTA treatment. The cells growing in an exponential growth phase were harvested and counted for tumor inoculation.
Each mouse was inoculated subcutaneously at the right upper flank with MC38_sgStk11 tumor cells (0.5×106) in 0.1 ml of PBS for tumor development. Treatments were started on day 4 after tumor inoculation when the average tumor size reached 52 mm^3. The animals were assigned into groups according to a sorting standard operating procedures based upon their tumor volumes. Each group consisted of 8 tumor bearing mice. The testing article was administrated to the mice according to the predetermined regimen as shown in the experimental design table (Table 1-1).
All the procedures related to animal handling, care and the treatment in the study were performed according to the guidelines approved by the Institutional Animal Care and Use Committee (IACUC) of vendor following the guidance of the Association for Assessment and Accreditation of Laboratory Animal Care (AAALAC). At the time of routine monitoring, the animals were daily checked for any effects of tumor growth and treatments on normal behavior such as mobility, food and water consumption, body weight gain/loss (body weights were measured three times per week), eye/hair matting and any other abnormal effect as stated in the protocol. Death and observed clinical signs were recorded on the basis of the numbers of animals within each subset.
A primary endpoint was to see if the tumor growth could be delayed or mice could be cured. Tumor size was measured three times per week in two dimensions using a caliper, and the volume was expressed in mm3 using the formula: V=0.5 a×b2 where a and b are the long and short diameters of the tumor, respectively. The T/C value (in percent) is an indication of antitumor effectiveness; T and C are the mean volume of the treated and control groups, respectively, on a given day. TGI is calculated for each group using the formula: TGI (%)=[1−(Ti−T0)/(Vi−V0)]×100; Ti is the average tumor volume of a treatment group on a given day, T0 is the average tumor volume of the treatment group on the day of treatment start, Vi is the average tumor volume of the vehicle control group on the same day with Ti, and V0 is the average tumor volume of the vehicle group on the day of treatment start.
Statistical analysis of difference in the tumor volume among the groups were conducted on the data obtained at the best therapeutic time point at the day 11 after the start of treatment. A one-way ANOVA was performed for comparisons between groups. The survival analysis between groups was carried out with Kaplan-Meier test. p<0.05 was considered to be statistically significant.

[1] = Gr 2: Compound I 3 mg/kg PO QD + Anti-IgG2a 10 mg/kg IP BIW
[2] = Gr 3: Compound I 10 mg/kg PO QD + Anti-IgG2a 10 mg/kg IP BIW
[3] = Gr 4: Compound I 30 mg/kg PO QD + Anti-IgG2a 10 mg/kg IP BIW
[4] = Gr 5: Compound I 75 mg/kg PO QD + Anti-IgG2a 10 mg/kg IP BIW

In the case of `C[S@@](=N)(=O)c1ccc(C(=O)Nc2cc(-c3ccc(F)cc3)ccc2N)cc1` [Compound I, (R)—N-(4-amino-4′-fluoro-[1,1′-biphenyl]-3-yl)-4-(S-methylsulfonimidoyl)benzamide], the “CR (complete regression)” value [1] is reported as 0.0%, the “ORR (CR + PR)” value [1] is reported as 0.0% and the “PR (partial regression)” value [1] is reported as 0.0%. The “Tumor Volume” value (Gr 2: Compound I 3 mg/kg PO QD + Anti-IgG2a 10 mg/kg IP BIW, day 0 of treatment) was 52 ± 2 mm^3, the “Tumor Volume” value (Gr 2: Compound I 3 mg/kg PO QD + Anti-IgG2a 10 mg/kg IP BIW, day 2 of treatment) was 208 ± 6 mm^3 and the “Tumor Volume” value (Gr 2: Compound I 3 mg/kg PO QD + Anti-IgG2a 10 mg/kg IP BIW, day 4 of treatment) was 489 ± 23 mm^3. For the same molecule, the “Tumor Volume” value (Gr 2: Compound I 3 mg/kg PO QD + Anti-IgG2a 10 mg/kg IP BIW, day 7 of treatment) was 925 ± 98 mm^3, the “Tumor Volume” value (Gr 2: Compound I 3 mg/kg PO QD + Anti-IgG2a 10 mg/kg IP BIW, day 9 of treatment) was 1439 ± 130 mm^3 and the T/C [1] was 98.7%. For the same molecule, the TGI % [1] was 1.3%, the “Tumor Volume” value (Gr 2: Compound I 3 mg/kg PO QD + Anti-IgG2a 10 mg/kg IP BIW, day 11 of treatment) was 2105 ± 184 mm^3 and the “Tumor Volume” value (Gr 2: Compound I 3 mg/kg PO QD + Anti-IgG2a 10 mg/kg IP BIW, day 14 of treatment) was 2876 ± 196 mm^3. The “Tumor Volume” value (Gr 2: Compound I 3 mg/kg PO QD + Anti-IgG2a 10 mg/kg IP BIW, day 16 of treatment) was 3215 ± 79 mm^3, the “CR (complete regression)” value [2] was 0.0% and the “ORR (CR + PR)” value [2] was 0.0%. The “PR (partial regression)” value [2] was 0.0%, the “Tumor Volume” value (Gr 3: Compound I 10 mg/kg PO QD + Anti-IgG2a 10 mg/kg IP BIW, day 0 of treatment) was 52 ± 2 mm^3 and the “Tumor Volume” value (Gr 3: Compound I 10 mg/kg PO QD + Anti-IgG2a 10 mg/kg IP BIW, day 2 of treatment) was 213 ± 10 mm^3. The “Tumor Volume” value (Gr 3: Compound I 10 mg/kg PO QD + Anti-IgG2a 10 mg/kg IP BIW, day 4 of treatment) was 473 ± 38 mm^3, the “Tumor Volume” value (Gr 3: Compound I 10 mg/kg PO QD + Anti-IgG2a 10 mg/kg IP BIW, day 7 of treatment) was 735 ± 82 mm^3 and the “Tumor Volume” value (Gr 3: Compound I 10 mg/kg PO QD + Anti-IgG2a 10 mg/kg IP BIW, day 9 of treatment) was 1059 ± 167 mm^3. For the same molecule, the T/C [2] was 65.8%, the TGI % [2] was 35.0% and the “Tumor Volume” value (Gr 3: Compound I 10 mg/kg PO QD + Anti-IgG2a 10 mg/kg IP BIW, day 11 of treatment) was 1403 ± 270 mm^3. For the same molecule, the “Tumor Volume” value (Gr 3: Compound I 10 mg/kg PO QD + Anti-IgG2a 10 mg/kg IP BIW, day 14 of treatment) was 1923 ± 343 mm^3, the “Tumor Volume” value (Gr 3: Compound I 10 mg/kg PO QD + Anti-IgG2a 10 mg/kg IP BIW, day 16 of treatment) was 2101 ± 176 mm^3 and the “Tumor Volume” value (Gr 3: Compound I 10 mg/kg PO QD + Anti-IgG2a 10 mg/kg IP BIW, day 18 of treatment) was 2570 ± 205 mm^3. For the same molecule, the “Tumor Volume” value (Gr 3: Compound I 10 mg/kg PO QD + Anti-IgG2a 10 mg/kg IP BIW, day 21 of treatment) was 3275 ± 64 mm^3, the “CR (complete regression)” value [3] was 0.0% and the “ORR (CR + PR)” value [3] was 0.0%. The “PR (partial regression)” value [3] was 0.0%, the “Tumor Volume” value (Gr 4: Compound I 30 mg/kg PO QD + Anti-IgG2a 10 mg/kg IP BIW, day 0 of treatment) was 52 ± 2 mm^3 and the “Tumor Volume” value (Gr 4: Compound I 30 mg/kg PO QD + Anti-IgG2a 10 mg/kg IP BIW, day 2 of treatment) was 212 ± 14 mm^3. The “Tumor Volume” value (Gr 4: Compound I 30 mg/kg PO QD + Anti-IgG2a 10 mg/kg IP BIW, day 4 of treatment) was 484 ± 37 mm^3, the “Tumor Volume” value (Gr 4: Compound I 30 mg/kg PO QD + Anti-IgG2a 10 mg/kg IP BIW, day 7 of treatment) was 734 ± 64 mm^3 and the “Tumor Volume” value (Gr 4: Compound I 30 mg/kg PO QD + Anti-IgG2a 10 mg/kg IP BIW, day 9 of treatment) was 883 ± 84 mm^3. For the same molecule, the T/C [3] was 49.5%, the TGI % [3] was 51.8% and the “Tumor Volume” value (Gr 4: Compound I 30 mg/kg PO QD + Anti-IgG2a 10 mg/kg IP BIW, day 11 of treatment) was 1055 ± 101 mm^3. For the same molecule, the “Tumor Volume” value (Gr 4: Compound I 30 mg/kg PO QD + Anti-IgG2a 10 mg/kg IP BIW, day 14 of treatment) was 1481 ± 146 mm^3, the “Tumor Volume” value (Gr 4: Compound I 30 mg/kg PO QD + Anti-IgG2a 10 mg/kg IP BIW, day 16 of treatment) was 1977 ± 272 mm^3 and the “Tumor Volume” value (Gr 4: Compound I 30 mg/kg PO QD + Anti-IgG2a 10 mg/kg IP BIW, day 18 of treatment) was 2344 ± 368 mm^3. For the same molecule, the “Tumor Volume” value (Gr 4: Compound I 30 mg/kg PO QD + Anti-IgG2a 10 mg/kg IP BIW, day 21 of treatment) was 2602 ± 361 mm^3, the “Tumor Volume” value (Gr 4: Compound I 30 mg/kg PO QD + Anti-IgG2a 10 mg/kg IP BIW, day 23 of treatment) was 2794 ± 665 mm^3 and the “Tumor Volume” value (Gr 4: Compound I 30 mg/kg PO QD + Anti-IgG2a 10 mg/kg IP BIW, day 25 of treatment) was 1551 mm^3. The “Tumor Volume” value (Gr 4: Compound I 30 mg/kg PO QD + Anti-IgG2a 10 mg/kg IP BIW, day 28 of treatment) was 2589 mm^3, the “Tumor Volume” value (Gr 4: Compound I 30 mg/kg PO QD + Anti-IgG2a 10 mg/kg IP BIW, day 30 of treatment) was 3550 mm^3 and the “CR (complete regression)” value [4] was 12.5%. For the same molecule, the “ORR (CR + PR)” value [4] was 12.5%.

Source: patent US20260041653A1, “AN HDAC INHIBITOR FOR TREATING CANCER WITH A MODIFIED STK11 ACTIVITY OR EXPRESSION” (Tango Therapeutics, Inc., priority 2022, published 2026)
